From ChEMBL document CHEMBL4017480, “Discovery and optimization of selective FGFR4 inhibitors via scaffold hopping” (Bioorg Med Chem Lett, 2017)
Converted amounts (≈) assume the structure as drawn.

Columns and labels:
[1] = molecular target: Macrophage colony-stimulating factor 1 receptor (Homo sapiens, UniProt P07333); experiment: Inhibition of human FMS at 10 uM using poly[Glu:Tyr] (4:1) as substrate measured after 120 mins in presence of [gamma33P]ATP by P81 ion exchange chromatographic method relative to control
Macrophage colony-stimulating factor 1 receptor, sequence (P07333 whole entry): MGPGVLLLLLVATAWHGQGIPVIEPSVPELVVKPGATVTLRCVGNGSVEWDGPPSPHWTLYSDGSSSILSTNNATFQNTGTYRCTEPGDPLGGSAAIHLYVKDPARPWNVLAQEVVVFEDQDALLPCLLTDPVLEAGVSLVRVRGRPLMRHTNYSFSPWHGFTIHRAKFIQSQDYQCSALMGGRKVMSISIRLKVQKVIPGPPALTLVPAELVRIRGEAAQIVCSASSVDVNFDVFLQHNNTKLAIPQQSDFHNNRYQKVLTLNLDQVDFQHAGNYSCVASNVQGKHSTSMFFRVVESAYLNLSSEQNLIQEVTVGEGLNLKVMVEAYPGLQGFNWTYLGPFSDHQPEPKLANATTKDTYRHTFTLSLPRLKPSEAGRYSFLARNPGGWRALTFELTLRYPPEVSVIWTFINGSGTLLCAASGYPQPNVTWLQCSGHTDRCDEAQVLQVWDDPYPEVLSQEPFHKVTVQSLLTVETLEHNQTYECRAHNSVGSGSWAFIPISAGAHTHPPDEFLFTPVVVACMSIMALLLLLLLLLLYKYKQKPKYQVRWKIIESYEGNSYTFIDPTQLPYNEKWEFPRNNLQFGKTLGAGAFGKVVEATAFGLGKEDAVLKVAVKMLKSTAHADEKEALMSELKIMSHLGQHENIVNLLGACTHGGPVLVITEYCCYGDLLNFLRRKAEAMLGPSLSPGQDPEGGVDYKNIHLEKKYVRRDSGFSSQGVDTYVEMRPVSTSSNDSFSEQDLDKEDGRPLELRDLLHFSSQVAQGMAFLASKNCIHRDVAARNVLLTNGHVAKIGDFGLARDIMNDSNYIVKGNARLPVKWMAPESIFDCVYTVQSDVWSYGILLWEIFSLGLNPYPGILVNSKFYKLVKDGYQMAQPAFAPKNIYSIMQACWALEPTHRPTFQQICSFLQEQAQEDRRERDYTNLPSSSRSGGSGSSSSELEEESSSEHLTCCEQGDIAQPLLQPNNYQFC

[2] = Intrinsic clearance in human liver microsomes at 1 uM measured after 60 mins in presence of NADPH by LC-MS/MS analysis; assay type: ADME, microsome; settings: read-out: CLH
[3] = molecular target: T1, Tyrosine-protein kinase ITK/TSK (Homo sapiens) (UniProt Q08881); experiment: Inhibition of human ITK at 10 uM using myelin basic protein as substrate measured after 120 mins in presence of [gamma33P]ATP by P81 ion exchange chromatographic method relative to control
T1 sequence (whole entry): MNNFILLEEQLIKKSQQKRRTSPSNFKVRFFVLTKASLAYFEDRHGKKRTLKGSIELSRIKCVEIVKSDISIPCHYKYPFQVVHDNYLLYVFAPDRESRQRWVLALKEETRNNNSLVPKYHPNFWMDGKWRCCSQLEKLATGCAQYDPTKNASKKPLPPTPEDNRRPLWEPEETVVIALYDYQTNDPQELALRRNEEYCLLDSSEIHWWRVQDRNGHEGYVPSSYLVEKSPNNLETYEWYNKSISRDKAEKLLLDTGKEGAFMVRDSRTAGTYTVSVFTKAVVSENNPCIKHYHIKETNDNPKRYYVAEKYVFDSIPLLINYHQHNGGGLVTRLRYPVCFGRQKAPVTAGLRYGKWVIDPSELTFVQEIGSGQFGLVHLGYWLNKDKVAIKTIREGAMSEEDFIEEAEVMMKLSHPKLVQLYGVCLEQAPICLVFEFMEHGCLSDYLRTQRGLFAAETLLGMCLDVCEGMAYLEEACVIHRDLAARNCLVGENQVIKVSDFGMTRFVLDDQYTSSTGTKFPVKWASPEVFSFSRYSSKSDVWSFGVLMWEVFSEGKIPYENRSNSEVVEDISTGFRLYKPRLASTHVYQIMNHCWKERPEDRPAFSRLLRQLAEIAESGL

[4] = molecular target: Fibroblast growth factor receptor 1 (Homo sapiens, UniProt P11362); experiment: Inhibition of recombinant human His-tagged FGFR1 cytoplasmic domain (308 to 731 residues) expressed in baculovirus expression system using tyr 04 as substrate measured within 60 mins by Z-LYTE assay
Fibroblast growth factor receptor 1, sequence (P11362 whole entry, the tested form may be a part): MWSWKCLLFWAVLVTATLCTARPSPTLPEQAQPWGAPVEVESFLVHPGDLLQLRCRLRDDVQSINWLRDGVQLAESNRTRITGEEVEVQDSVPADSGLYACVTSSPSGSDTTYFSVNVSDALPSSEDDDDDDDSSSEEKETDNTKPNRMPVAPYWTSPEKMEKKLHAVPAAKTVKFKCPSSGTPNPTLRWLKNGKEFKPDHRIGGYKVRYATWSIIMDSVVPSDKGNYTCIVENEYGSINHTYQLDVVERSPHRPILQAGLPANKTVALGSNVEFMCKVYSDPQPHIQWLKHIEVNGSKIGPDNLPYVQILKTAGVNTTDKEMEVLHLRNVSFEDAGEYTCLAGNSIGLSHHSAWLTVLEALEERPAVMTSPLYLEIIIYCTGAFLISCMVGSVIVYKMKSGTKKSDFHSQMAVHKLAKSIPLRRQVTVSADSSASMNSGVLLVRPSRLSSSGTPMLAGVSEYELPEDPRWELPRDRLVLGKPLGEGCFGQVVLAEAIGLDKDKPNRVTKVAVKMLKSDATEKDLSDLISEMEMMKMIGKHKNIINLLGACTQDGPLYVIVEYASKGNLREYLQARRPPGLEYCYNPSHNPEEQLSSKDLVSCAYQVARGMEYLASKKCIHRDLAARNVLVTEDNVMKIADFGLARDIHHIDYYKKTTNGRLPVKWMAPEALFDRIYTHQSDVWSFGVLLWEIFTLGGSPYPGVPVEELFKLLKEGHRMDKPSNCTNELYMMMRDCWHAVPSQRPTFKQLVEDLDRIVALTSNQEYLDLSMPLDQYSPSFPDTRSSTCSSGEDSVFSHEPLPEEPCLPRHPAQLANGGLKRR

[5] = system: Plasma; experiment: Drug degradation in human plasma measured after 2 hrs by metabolite identification method; assay type: ADME, cell-free
[6] = molecular target: Cytochrome P450 2C19 (Homo sapiens, UniProt P33261); experiment: Inhibition of CYP2C19 in human liver microsomes using S-mephenytoin as substrate pretreated for 10 mins followed by substrate addition measured after 10 mins in presence of NADPH by LC-MS/MS method; assay type: ADME
Cytochrome P450 2C19, sequence (P33261 whole entry): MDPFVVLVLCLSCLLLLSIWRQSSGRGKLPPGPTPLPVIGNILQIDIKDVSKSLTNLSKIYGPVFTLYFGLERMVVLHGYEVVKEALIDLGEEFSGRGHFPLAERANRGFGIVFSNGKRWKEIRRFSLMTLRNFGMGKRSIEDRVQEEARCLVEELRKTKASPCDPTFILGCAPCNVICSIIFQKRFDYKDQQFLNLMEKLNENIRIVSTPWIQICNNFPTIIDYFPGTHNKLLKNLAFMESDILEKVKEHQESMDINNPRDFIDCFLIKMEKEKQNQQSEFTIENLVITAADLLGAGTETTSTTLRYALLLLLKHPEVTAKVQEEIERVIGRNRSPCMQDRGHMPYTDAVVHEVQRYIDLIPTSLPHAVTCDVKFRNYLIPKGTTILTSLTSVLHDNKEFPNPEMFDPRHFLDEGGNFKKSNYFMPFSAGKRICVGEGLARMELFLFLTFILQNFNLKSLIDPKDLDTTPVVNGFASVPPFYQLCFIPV

[7] = molecular target: T2, Tyrosine-protein kinase Tec (Homo sapiens, UniProt P42680); experiment: Inhibition of human TEC using poly[Glu:Tyr] (4:1) as substrate measured after 120 mins in presence of [gamma33P]ATP by P81 ion exchange chromatographic method
T2 sequence (P42680 whole entry): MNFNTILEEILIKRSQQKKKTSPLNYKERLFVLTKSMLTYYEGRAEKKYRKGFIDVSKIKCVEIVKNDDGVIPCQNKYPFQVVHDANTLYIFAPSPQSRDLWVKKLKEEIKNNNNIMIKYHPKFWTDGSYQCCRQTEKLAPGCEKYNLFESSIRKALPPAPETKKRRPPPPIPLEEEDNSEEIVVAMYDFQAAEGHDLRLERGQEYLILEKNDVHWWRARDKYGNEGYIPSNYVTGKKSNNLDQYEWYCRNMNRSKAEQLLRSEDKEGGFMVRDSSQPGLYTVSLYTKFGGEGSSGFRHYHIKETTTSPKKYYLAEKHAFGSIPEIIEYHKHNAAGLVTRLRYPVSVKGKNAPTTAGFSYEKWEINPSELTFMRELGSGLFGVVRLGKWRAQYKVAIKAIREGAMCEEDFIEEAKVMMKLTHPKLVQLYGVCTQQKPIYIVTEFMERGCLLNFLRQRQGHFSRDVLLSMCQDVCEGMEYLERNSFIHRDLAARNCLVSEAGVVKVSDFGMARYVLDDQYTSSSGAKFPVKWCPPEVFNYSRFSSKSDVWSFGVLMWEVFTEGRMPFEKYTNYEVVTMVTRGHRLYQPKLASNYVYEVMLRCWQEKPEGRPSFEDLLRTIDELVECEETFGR

[8] = molecular target: Tyrosine-protein kinase BTK (Homo sapiens, UniProt Q06187); experiment: Inhibition of human BTK using KVEKIGEGTYGVVYK as substrate measured after 120 mins in presence of [gamma33P]ATP by P81 ion exchange chromatographic method
Tyrosine-protein kinase BTK, sequence (Q06187 whole entry): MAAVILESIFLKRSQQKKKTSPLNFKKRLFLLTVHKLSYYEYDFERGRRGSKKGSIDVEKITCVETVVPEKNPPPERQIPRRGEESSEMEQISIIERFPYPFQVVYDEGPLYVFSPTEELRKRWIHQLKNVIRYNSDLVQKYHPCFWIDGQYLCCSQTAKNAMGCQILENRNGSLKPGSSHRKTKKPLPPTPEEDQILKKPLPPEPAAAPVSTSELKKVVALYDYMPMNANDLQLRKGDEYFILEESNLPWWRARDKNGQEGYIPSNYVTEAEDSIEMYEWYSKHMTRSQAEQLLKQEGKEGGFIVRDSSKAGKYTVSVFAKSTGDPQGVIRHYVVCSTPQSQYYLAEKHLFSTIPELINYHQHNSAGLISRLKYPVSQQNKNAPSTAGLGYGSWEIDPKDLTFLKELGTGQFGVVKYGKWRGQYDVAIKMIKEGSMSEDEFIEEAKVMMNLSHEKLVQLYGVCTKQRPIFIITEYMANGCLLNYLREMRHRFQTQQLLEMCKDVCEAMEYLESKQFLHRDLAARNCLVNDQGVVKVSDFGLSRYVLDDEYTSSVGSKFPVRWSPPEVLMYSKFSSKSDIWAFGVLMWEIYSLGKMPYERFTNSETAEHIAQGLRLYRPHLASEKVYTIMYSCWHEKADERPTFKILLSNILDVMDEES

[9] = molecular target: Cytochrome P450 2D6 (Homo sapiens, UniProt P10635); experiment: Inhibition of CYP2D6 in human liver microsomes using dextromethorphan as substrate pretreated for 10 mins followed by substrate addition measured after 10 mins in presence of NADPH by LC-MS/MS method; assay type: ADME
Cytochrome P450 2D6, sequence (P10635 whole entry): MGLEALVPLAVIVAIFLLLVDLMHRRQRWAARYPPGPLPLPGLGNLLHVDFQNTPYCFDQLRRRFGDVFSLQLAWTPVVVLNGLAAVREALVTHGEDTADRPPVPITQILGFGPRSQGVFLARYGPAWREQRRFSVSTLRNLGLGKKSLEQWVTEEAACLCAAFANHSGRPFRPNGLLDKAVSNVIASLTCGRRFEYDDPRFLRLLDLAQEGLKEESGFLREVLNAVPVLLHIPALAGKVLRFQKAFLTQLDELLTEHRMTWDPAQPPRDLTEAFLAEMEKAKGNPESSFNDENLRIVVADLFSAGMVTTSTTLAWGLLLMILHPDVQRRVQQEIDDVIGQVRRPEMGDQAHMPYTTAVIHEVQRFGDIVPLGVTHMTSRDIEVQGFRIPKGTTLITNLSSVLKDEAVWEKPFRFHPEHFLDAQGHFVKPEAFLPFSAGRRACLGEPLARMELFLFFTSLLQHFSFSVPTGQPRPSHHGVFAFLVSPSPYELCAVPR

[10] = molecular target: T3, Tyrosine-protein kinase ITK/TSK (Homo sapiens, UniProt Q08881); experiment: Inhibition of human ITK using myelin basic protein as substrate measured after 120 mins in presence of [gamma33P]ATP by P81 ion exchange chromatographic method
T3 sequence (Q08881 whole entry): T1 sequence (whole entry)

[11] = molecular target: Fibroblast growth factor receptor 4 (Homo sapiens, UniProt P22455); experiment: Inhibition of recombinant human N-terminal His-tagged FGFR4 cytoplasmic domain […] expressed in baculovirus expression system using tyr 04 peptide as substrate measured within 90 mins by Z-LYTE assay
[12] = Efflux ratio of apparent permeability from basolateral to apical over apical to basolateral side in MDCK2-MDR1 cells at 2 uM after 2.5 hrs LC-MS/MS analysis; assay type: ADME, cell-based, Canis lupus familiaris; settings: dog, MDCK-MDR1
[13] = Kinetic solubility of the compound at pH 7.4; assay type: physicochemical; settings: buffer, read-out: Kinetic_solubility
[14] = Octanol-buffer distribution co-efficient, log D of the compound at pH 7.4; assay type: physicochemical
[15] = Stability in human plasma assessed as compound remaining at 2 uM measured after 2 hrs by LC-MS/MS analysis; assay type: ADME, cell-free; settings: read-out: Stability
[16] = molecular target: Epidermal growth factor receptor (Homo sapiens, UniProt P00533); experiment: Inhibition of human EGFR at 10 uM using poly[Glu:Tyr] (4:1) as substrate measured after 120 mins in presence of [gamma33P]ATP by P81 ion exchange chromatographic method relative to control
Epidermal growth factor receptor, sequence (P00533 whole entry): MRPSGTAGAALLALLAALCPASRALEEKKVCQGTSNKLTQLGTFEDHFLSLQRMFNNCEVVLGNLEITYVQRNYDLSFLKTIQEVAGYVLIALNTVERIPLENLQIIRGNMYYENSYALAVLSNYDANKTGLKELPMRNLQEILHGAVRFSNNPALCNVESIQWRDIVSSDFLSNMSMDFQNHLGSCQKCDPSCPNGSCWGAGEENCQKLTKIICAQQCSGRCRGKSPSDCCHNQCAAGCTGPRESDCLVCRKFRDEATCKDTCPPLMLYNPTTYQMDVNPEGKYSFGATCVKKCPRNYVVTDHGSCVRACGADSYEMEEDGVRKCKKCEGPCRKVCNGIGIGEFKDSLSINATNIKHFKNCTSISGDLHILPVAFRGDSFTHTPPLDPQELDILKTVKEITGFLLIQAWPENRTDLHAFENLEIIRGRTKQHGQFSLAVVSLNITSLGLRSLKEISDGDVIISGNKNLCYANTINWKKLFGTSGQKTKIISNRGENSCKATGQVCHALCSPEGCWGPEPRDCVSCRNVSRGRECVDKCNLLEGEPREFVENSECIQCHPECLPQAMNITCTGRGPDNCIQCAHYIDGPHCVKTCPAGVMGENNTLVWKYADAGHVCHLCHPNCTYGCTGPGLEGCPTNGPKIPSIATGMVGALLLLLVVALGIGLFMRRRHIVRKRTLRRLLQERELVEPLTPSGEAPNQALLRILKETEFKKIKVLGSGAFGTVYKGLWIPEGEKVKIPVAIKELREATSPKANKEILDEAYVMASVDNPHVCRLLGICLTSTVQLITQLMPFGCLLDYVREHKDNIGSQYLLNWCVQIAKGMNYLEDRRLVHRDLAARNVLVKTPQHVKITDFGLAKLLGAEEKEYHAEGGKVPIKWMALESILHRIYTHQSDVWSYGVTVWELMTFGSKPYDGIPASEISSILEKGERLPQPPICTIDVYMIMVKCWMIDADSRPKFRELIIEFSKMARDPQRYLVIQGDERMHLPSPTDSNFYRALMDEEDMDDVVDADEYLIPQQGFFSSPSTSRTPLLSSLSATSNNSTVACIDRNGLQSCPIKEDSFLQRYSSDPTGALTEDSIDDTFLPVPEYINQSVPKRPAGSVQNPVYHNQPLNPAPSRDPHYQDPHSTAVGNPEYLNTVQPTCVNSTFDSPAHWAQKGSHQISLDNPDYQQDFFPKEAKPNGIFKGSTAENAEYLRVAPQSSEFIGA

[17] = molecular target: T4, Tyrosine-protein kinase Tec (Homo sapiens) (UniProt P42680); experiment: Inhibition of human TEC at 10 uM using poly[Glu:Tyr] (4:1) as substrate measured after 120 mins in presence of [gamma33P]ATP by P81 ion exchange chromatographic method relative to control
T4 sequence (whole entry): T2 sequence (P42680 whole entry)

[18] = Unbound plasma concentration in human at 2 uM measured after 4 hrs by LC-MS/MS analysis; assay type: ADME, cell-free
[19] = Volume of distribution in Balb/c mouse at 0.2 mg/kg, iv administered as single bolus dose by LC-MS/MS analysis; assay type: ADME, organism-based; settings: in vivo
[20] = Unbound plasma concentration in rat at 2 uM measured after 4 hrs by LC-MS/MS analysis; assay type: ADME, cell-free

SMILES | inhibition [1] [%] | CLint scaled at 1 µM [2] [mL/min/kg] | inhibition [3] [%] | IC50 [4] [µM] | Drug degradation [5] [%] | IC50 [6] [µM] | IC50 [7] [µM] | IC50 [8] [µM] | IC50 [9] [µM] | IC50 [10] [µM] | IC50 [11] [µM] | efflux ratio at 2.5 h, 2 µM [12] | solubility kinetic [13] [µg/mL] | logD [14] | remaining at 2 h, 2 µM [15] [%] | inhibition [16] [%] | inhibition [17] [%] | fraction unbound at 4 h, 2 µM [18] | Vd [19] [L/kg] | fraction unbound at 4 h, 2 µM [20]
C=CC(=O)Nc1cccc(C)c1Nc1ncc(OCc2c(F)c(OC)cc(OC)c2F)cn1 | 4 | 165 | 9 | 8.6 | 30 | 1.5 | > 10 | > 10 | 35 | > 10 | 0.003 | 1 | 39 (≈ 85.4 µM) | 3 | 48 | 6 | – | – | – | –
C=CC(=O)Nc1cccc(C)c1Nc1ncc2cc(-c3c(Cl)c(OC)cc(OC)c3Cl)ccc2n1 | 78 | 41 | 16 | – | – | 1.7 | > 10 | > 10 | 12.5 | > 10 | – | – | < 0.5 | > 4.5 | 71 | 1 | -5 | – | – | –
C=CC(=O)N[C@H]1COC[C@H]1Nc1ncc(OCc2c(F)c(OC)cc(OC)c2F)cn1 | 6 | 18 | 0 | 3.5 | – | 19.8 | > 10 | > 10 | > 50 | > 10 | 0.013 | 3.8 | 78 (≈ 179 µM) | 1.8 | 92 | 1 | -1 | 0.354 | 0.58 | 0.309
